Structures are written as SMILES.

For the experiment, the target named is Acrosin (Homo sapiens, UniProt P10323). Briefly: Inhibition of acrosin activity in human spermatozoa using N-alpha-benzoyl-DL-arginine para-nitroanilide-HCI as a substrate after 3 hrs by spectrophotometric analysis.
Sequence of Acrosin (P10323 20-42 limits assumed): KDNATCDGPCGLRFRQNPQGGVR
Sequence of Acrosin (P10323 43-343 limits assumed): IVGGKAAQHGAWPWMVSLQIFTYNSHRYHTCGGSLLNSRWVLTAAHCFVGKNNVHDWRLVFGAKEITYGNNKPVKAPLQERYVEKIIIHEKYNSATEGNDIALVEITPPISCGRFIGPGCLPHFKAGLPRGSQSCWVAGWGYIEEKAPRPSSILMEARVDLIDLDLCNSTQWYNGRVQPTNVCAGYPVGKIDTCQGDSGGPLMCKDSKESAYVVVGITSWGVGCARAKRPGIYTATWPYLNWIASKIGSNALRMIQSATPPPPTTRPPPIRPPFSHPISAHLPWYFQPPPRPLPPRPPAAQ
By IC50 is commonly meant the concentration needed to halve the response being measured. Read a low IC50 as inhibition by little substance. Turning to `N=C(N)NS(=O)(=O)c1ccc(NC(=O)c2cccc(Cl)c2)cc1`, it took 7 mM to reach half-maximal inhibition (IC50).
`CCCCOC(=O)C1CCN(CC(=O)Nc2ccc(S(=O)(=O)NC(=N)N)cc2)CC1` yielded an IC50 of 9.5 mM.
On to `N=C(N)NS(=O)(=O)c1ccc(NC(=O)c2ccc(CCl)cc2)cc1`, for which inhibition was half-maximal at 3.84 mM (IC50).
`COc1ccc(C(=O)Nc2ccc(S(=O)(=O)NC(=N)N)cc2)cc1` came in with an IC50 of 2.21 mM.
Molecule `Cc1ccccc1OCC(=O)Nc1ccc(S(=O)(=O)NC(=N)N)cc1` displayed a concentration for half-maximal inhibition (IC50) of 9.3 mM.
`N=C(N)NS(=O)(=O)c1ccc(NC(=O)COc2ccc(Cl)cc2)cc1` yielded an IC50 of 9.35 mM.
`NC(N)=NS(=O)(=O)c1ccc(NC(=O)c2ccc(Cl)c(Cl)c2)cc1` came in with an IC50 of 3.8 mM.
Regarding `NC(N)=NS(=O)(=O)c1ccc(NC(=O)c2cc([N+](=O)[O-])cc([N+](=O)[O-])c2)cc1`, the 50% inhibitory concentration (IC50) was found to be 2.5 mM.
As for `CC(C)OC(=O)C1CCN(CC(=O)Nc2ccc(S(=O)(=O)NC(=N)N)cc2)CC1`, the IC50 was found to be 2.35 mM.
Under `CCCC(=O)Nc1ccc(S(=O)(=O)NC(=N)N)cc1` stands 9.58 mM.
Molecule `COc1ccc(OCC(=O)Nc2ccc(S(=O)(=O)N=C(N)N)cc2)cc1` registered an IC50 of 9.84 mM.
In the case of `Cc1ccc(C(=O)Nc2ccc(S(=O)(=O)NC(=N)N)cc2)cc1`, the midpoint of inhibition, the IC50, lay at 2.06 mM.
Under `COC(=O)c1ccc(OC(=O)c2ccc(NC(=N)N)cc2)cc1` stands 0.027 mM.
The molecule `N=C(N)NS(=O)(=O)c1ccc(NC(=O)c2cccc(C(F)(F)F)c2)cc1` came in with an IC50 of 7.05 mM.
`NC(N)=NS(=O)(=O)c1ccc(NC(=O)c2c(Cl)cccc2Cl)cc1` came in with an IC50 of 5.96 mM.
As for `CCC(=O)Nc1ccc(S(=O)(=O)N=C(N)N)cc1`, the IC50 worked out at 9 mM.
`NC(N)=NS(=O)(=O)c1ccc(NC(=O)CN2CCCCC2)cc1` came in with a half-maximal inhibitory concentration (IC50) of 7.41 mM.
For the molecule `CC(C)CCOC(=O)C1CCN(CC(=O)Nc2ccc(S(=O)(=O)NC(=N)N)cc2)CC1`, the half-maximal inhibitory concentration (IC50) is 2.51 mM.
In the case of `CCc1ccc(C(=O)Nc2ccc(S(=O)(=O)N=C(N)N)cc2)cc1`, the midpoint of inhibition, the IC50, lay at 0.21 mM.
As to `N=C(N)NS(=O)(=O)c1ccc(NC(=O)c2c(F)cccc2F)cc1`, half-maximal inhibition (IC50) required 7.18 mM.
For the molecule `CCOC(=O)C1CCN(CC(=O)Nc2ccc(S(=O)(=O)N=C(N)N)cc2)CC1`, the IC50 was 2.99 mM.
With `CCCOC(=O)C1CCN(CC(=O)Nc2ccc(S(=O)(=O)N=C(N)N)cc2)CC1`, the IC50 was found to be 3.31 mM.
For `N=C(N)NS(=O)(=O)c1ccc(NC(=O)c2ccccc2Cl)cc1`, the IC50 is 6.3 mM.
As for `N=C(N)NS(=O)(=O)c1ccc(NC(=O)c2ccccc2Br)cc1`, half-maximal inhibition (IC50) was put at 7.63 mM.
As to `N=C(N)NS(=O)(=O)c1ccc(NC(=O)c2ccc(F)cc2)cc1`, it took 7.11 mM to reach half-maximal inhibition (IC50).
As for `Cc1ccc(OCC(=O)Nc2ccc(S(=O)(=O)N=C(N)N)cc2)cc1`, half-maximal inhibition (IC50) was put at 8.98 mM.
On to `CC1CCCCN1CC(=O)Nc1ccc(S(=O)(=O)N=C(N)N)cc1` (stereo unspecified), for which the IC50 was determined as 9.9 mM.
In turn, `CCCCC(=O)Nc1ccc(S(=O)(=O)NC(=N)N)cc1` yielded an IC50 of 1.58 mM.
Molecule `N=C(N)NS(=O)(=O)c1ccc(NC(=O)COc2ccccc2)cc1` had an IC50 of 2.3 mM.
With `CC1CCN(CC(=O)Nc2ccc(S(=O)(=O)NC(=N)N)cc2)CC1`, 4.98 mM corresponded to half-maximal inhibition (IC50).
Turning to `Cc1cc(C)c(C(=O)Nc2ccc(S(=O)(=O)NC(=N)N)cc2)c(C)c1`, the IC50 is 2.45 mM.
Under `N=C(N)NS(=O)(=O)c1ccc(NC(=O)c2ccc(Cl)cc2Cl)cc1` stands 5.63 mM; under `Cc1cccc(OCC(=O)Nc2ccc(S(=O)(=O)N=C(N)N)cc2)c1`, 8.92 mM.
As to `COC(=O)C1CCN(CC(=O)Nc2ccc(S(=O)(=O)NC(=N)N)cc2)CC1`, half-maximal inhibition (IC50) was put at 9.3 mM.
The molecule `CCOc1ccc(C(=O)Nc2ccc(S(=O)(=O)NC(=N)N)cc2)cc1` returned a half-maximal inhibitory concentration (IC50) of 0.13 mM.
As to `N=C(N)NS(=O)(=O)c1ccc(NC(=O)COc2ccc([N+](=O)[O-])cc2)cc1`, the midpoint of inhibition, the IC50, lay at 4.2 mM.
